# Measured values taken from US11827628B2, “Compositions and methods for inhibition of the JAK pathway” (Rigel Pharmaceuticals, Inc., priority 2005, dated 2023).
# Test system: Primary human T-cells
# Assay: Primary Human T-Cell Proliferation Assay Stimulated with IL-2 (CellTiter-Glo)
# Assay type: cell-based
# Conditions: primary human T-cell proliferation stimulated with IL-2; read-out: IC50, Example 42
# Method in brief: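 IC50 derived from CellTiter-Glo ATP signal after 72 hours of IL-2-driven proliferation at 37° C. Cells: primary human T-cells from blood, stimulated beforehand 3-4 days on anti-CD3/anti-CD28 with IL-2, then rested from IL-2 before compound exposure in duplicate; IL-2-free wells served as unstimulated control.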
row,Compound,IC50 [µM]
1,"CNS(=O)(=O)c1cc(Nc2ncc(F)c(Nc3ccc(CC#N)cc3)n2)ccc1C [III-1, 5-Fluoro-N2-[3-(N-methylaminosulfony)-4-methylphenyl]-5-fluoro-N4-(4-cyanomethylphenyl)-2,4-pyrimidinediamine]",0.545
2,"Cc1nc(COc2ccc(Nc3nc(Nc4ccc(S(N)(=O)=O)cc4)ncc3F)cc2)cs1 [Compound I-285, N2-(4-Aminosulfonylphenyl)-5-fluoro-N4-[4-(2-methylthiazol-4-yl)methyleneoxyphenyl]-2,4-pyrimidinediamine]",0.314
3,"N#CCOc1ccc(Nc2nc(Nc3ccc(Cl)c(S(N)(=O)=O)c3)ncc2F)cc1 [Compound I-21, N2-(3-Aminosulfonyl-4-chlorophenyl)-N4-(4-cyanomethoxy)phenyl-5-fluoro-2,4-pyrimidinediamine]",0.258
4,"Cc1ccc(Nc2ncc(F)c(Nc3cccc(OC4CCCN(C)C4)c3)n2)cc1S(N)(=O)=O (racemic) [II-1, Racemic N2-(3-aminosulfonyl-4-methylphenyl)-5-fluoro-N4-{3-[(1-methylpiperidin-3-yl)oxy]phenyl}-2,4-pyrimidinediamine]",1.14
5,"CNS(=O)(=O)c1cc(Nc2ncc(F)c(Nc3ccc(OCc4csc(C)n4)cc3)n2)ccc1C [Compound I-282, 5-Fluoro-N2-[3-(N-methylaminosulfony)-4-methylphenyl]-N4-[4-(2-methylthiazol-4-yl)methyleneoxyphenyl]-2,4-pyrimidinediamine]",0.697
6,"CCN(CC)CCNS(=O)(=O)c1ccc(Nc2ncc(F)c(Nc3ccc(CC#N)cc3)n2)cc1 [III-2, N2-[4-(2-N,N-Diethylaminoethyl)aminosulfonylphenyl)-5-fluoro-N4-(4-cyanomethylphenyl)-2,4-pyrimidinediamine]",3.44
7,"5-Fluoro-N4-[4-(3-methyl-1,2,4-oxadiazol-3-yl)methyleneoxyphenyl]-N2-[(3-N-propanamido)sulfonylphenyl)]-2,4-pyrimidinediamine [Compound I-262]",0.164
8,"N#CCc1ccc(Nc2nc(Nc3ccc(F)c(S(N)(=O)=O)c3)ncc2F)cc1 [III-10, N2-(3-Aminosulfonyl-4-fluoro)phenyl-N4-(4-cyanomethyl)phenyl-5-fluoro-2,4-pyrimidinediamine]",0.922
9,"Cc1ccc(Nc2ncc(F)c(Nc3ccc(OC4CCCN(C)C4)cc3)n2)cc1S(N)(=O)=O (racemic) [II-4, Racemic N2-(3-aminosulfonyl-4-methylphenyl)-5-fluoro-N4-{4-[(1-methylpiperidin-3-yl)oxy]phenyl}-2,4-pyrimidinediamine]",2.37
10,"COc1cc(Nc2ncc(F)c(Nc3ccc(CC#N)cc3)n2)ccc1S(N)(=O)=O [III-9, N2-(4-Aminosulfonyl-3-methoxy)phenyl-N4-(4-cyanomethyl)phenyl-5-fluoro-2,4-pyrimidinediamine]",1.8
11,"Cc1nc(COc2ccc(Nc3nc(Nc4cccc(S(N)(=O)=O)c4)ncc3F)cc2)cs1 [Compound I-281, N2-(3-Aminosulfonylphenyl)-5-fluoro-N4-[4-(2-methylthiazol-4-yl)methyleneoxyphenyl]-2,4-pyrimidinediamine]",0.0904
12,"Cc1ccc(Nc2ncc(F)c(Nc3ccc(CCC#N)cc3)n2)cc1S(N)(=O)=O [III-15, N2-(3-Aminosulfonyl-4-methylphenyl)-N4-[4-(cyanoethylene)phenyl]-5-fluoro-2,4-pyrimidinediamine]",0.107
13,"CNS(=O)(=O)c1cc(Nc2ncc(F)c(Nc3ccc(OCc4cc(C)on4)cc3)n2)ccc1C [Compound I-235, 5-Fluoro-N2-[3-(N-methyl)aminosulfonyl-4-methylphenyl]-N4-[4-(5-methylisoxazol-3-yl)methyleneoxyphenyl]-2,4-pyrimidinediamine]",0.47
14,"CCN(CC)CCNS(=O)(=O)c1ccc(Nc2ncc(F)c(Nc3ccc(OCc4nc(C)no4)cc3)n2)cc1 [Compound I-263, N2-[4-(2-N,N-Diethylaminoethyl)aminosulfonylphenyl)-5-fluoro-N4-[4-(3-methyl-1,2,4-oxadiazol-5-yl)methyleneoxyphenyl]-2,4-pyrimidinediamine]",0.0644
